Laboratory results reported in patent publication US12129312B2, “Peptide compound, application thereof and composition containing same” (priority 2017, dated 2024).
Numbered stars: 1 amine (or outer) side, 2 acyl side, 3 side chain; on linkers, the order of the positions; unused ones are H or OH. Square brackets hold non-standard residues; d marks the D form. Peptide text beside a SMILES is read from it. * marks the point of attachment. X11 = O=C([C@@H](Cc1ccc(O)cc1)N(CCCc1ccccc1)[*:1])[*:2]; Phenylacetyl(4-Ph) = O=C(Cc1ccc(-c2ccccc2)cc1)*; Bpa = N[C@@H](Cc1ccc(C(=O)c2ccccc2)cc1)C(=O)O; PEG8 = NCCOCCOCCOCCOCCOCCOCCOCCOCCC(=O)O; Benzoyl(2,3-diOH) = O=C(c1cccc(O)c1O)*; Pro(4,4-F2) = O=C(O)[C@@H]1CC(F)(F)CN1; X4 = O=C([C@@H]1Cc2ccsc2CN1[*:1])[*:2]; 2Nal = N[C@@H](Cc1ccc2ccccc2c1)C(=O)O; Pentanoyl(5-Ph) = O=C(CCCCc1ccccc1)*; Tiq1c(1S) = O=C(O)[C@H]1NCCc2ccccc21; dNMeY = CN[C@H](Cc1ccc(O)cc1)C(=O)O; NMehLeu = CN[C@@H](CCC(C)C)C(=O)O; NMeQ = CN[C@@H](CCC(N)=O)C(=O)O; Tic = O=C(O)[C@@H]1Cc2ccccc2CN1; dTic = O=C(O)[C@H]1Cc2ccccc2CN1; NMeL = CN[C@@H](CC(C)C)C(=O)O; Lauroyl = CCCCCCCCCCCC(=O)*; NMeS = CN[C@@H](CO)C(=O)O; X8 = O=C(c1c(O)cccc1O)*; βAla = NCCC(=O)O

Target: T1, human Chemokine like receptor 1 (Homo sapiens, UniProt Q99788)
T1 construct: host or cells: U2OS (Tango CMKLR1-bla U2OS)
T1 sequence (Q99788 1-373): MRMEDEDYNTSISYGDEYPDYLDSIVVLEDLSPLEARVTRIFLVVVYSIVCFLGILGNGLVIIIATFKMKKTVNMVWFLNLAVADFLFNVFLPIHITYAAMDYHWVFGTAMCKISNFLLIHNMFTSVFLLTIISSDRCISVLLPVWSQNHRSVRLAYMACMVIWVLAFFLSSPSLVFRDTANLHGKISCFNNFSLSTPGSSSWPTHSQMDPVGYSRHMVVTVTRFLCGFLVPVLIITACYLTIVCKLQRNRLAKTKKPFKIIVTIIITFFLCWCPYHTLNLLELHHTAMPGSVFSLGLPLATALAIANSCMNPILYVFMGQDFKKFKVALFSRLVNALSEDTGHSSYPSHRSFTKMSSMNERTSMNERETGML
Test: Activation of Tango CMKLR1-bla U2OS cells (beta-lactamase FRET reporter)
Assay type: cell-based
Settings: not given
Procedure, shortened: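 Agonist mode in Tango CMKLR1-bla U2OS cells, 10000 cells/well seeded overnight, then 10-point 3-fold compound dilutions from 10 mM DMSO stock applied for 4 h at 37 °C, 5% CO2. Beta-lactamase reporter read with CCF4-AM FRET substrate; peptide (D-Tyr)-Phe-Leu-Pro-(D-Ser)-Gln-Phe-(D-Ala)-Tic-Ser served as positive control.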

Compound	EC50 [µM]
CC(C)C[C@@H](C(=O)N1CCC[C@H]1C(=O)N[C@H](CO)C(=O)N[C@@H](CCC(N)=O)C(=O)N[C@@H](Cc1ccccc1)C(=O)N[C@H](C)C(=O)N1Cc2ccccc2C[C@H]1C(=O)N[C@@H](CO)C(=O)O)N(C)C(=O)[C@H](Cc1ccc2ccccc2c1)NC(=O)[C@H](N)Cc1ccc(O)cc1 [YW-200, (D-Tyr)-2Nal-(NMe-Leu)-Pro-(D-Ser)-Gln-Phe-(D-Ala)-Tic-Ser] (H-[dY][2Nal][NMeL]P[dS]QF[dA][Tic]S-OH)	0.019
CC(C)CC[C@@H](C(=O)N1CCC[C@H]1C(=O)N[C@H](CO)C(=O)N[C@@H](CCC(N)=O)C(=O)N[C@@H](Cc1ccccc1)C(=O)N[C@H](C)C(=O)N1Cc2ccccc2C[C@H]1C(=O)N[C@@H](CO)C(=O)O)N(C)C(=O)[C@H](Cc1ccccc1)NC(=O)[C@H](N)Cc1ccc(O)cc1 [YW-101, (D-Tyr)-Phe-(NMe-HoLeu)-Pro-(D-Ser)-Gln-Phe-(D-Ala)-Tic-Ser-OH] (H-[dY]F[NMehLeu]P[dS]QF[dA][Tic]S-OH)	0.0029
CC(C)C[C@H](NC(=O)[C@H](Cc1ccccc1)NC(=O)[C@@H](Cc1ccc(O)cc1)NC(=O)Cc1ccc(-c2ccccc2)cc1)C(=O)N1CCC[C@H]1C(=O)N[C@H](CO)C(=O)N[C@@H](CCC(N)=O)C(=O)N[C@@H](Cc1ccccc1)C(=O)N[C@H](C)C(=O)N1Cc2ccccc2C[C@H]1C(=O)N[C@@H](CO)C(=O)O [YW-77, 4-biphenylacetyl-(D-Tyr)-Phe-Leu-Pro-(D-Ser)-Gln-Phe-(D-Ala)-Tic-Ser-OH] ({Phenylacetyl(4-Ph)}-[dY]FLP[dS]QF[dA][Tic]S-OH)	0.053

Same assay, conditions: determination by the method of Effect Embodiment 1; read-out: EC50

EC50 [µM]	Compound
0.021	CC(C)C[C@H](NC(=O)[C@H](Cc1ccccc1)NC(=O)[C@H](N)Cc1ccc(O)cc1)C(=O)N1CCC[C@H]1C(=O)N[C@H](CO)C(=O)N[C@@H](CCC(N)=O)C(=O)N[C@@H](Cc1ccccc1)C(=O)N[C@H](C)C(=O)N1Cc2ccccc2C[C@@H]1C(=O)N[C@@H](CO)C(=O)O [YW-149, (D-Tyr)-Phe-Leu-Pro-(D-Ser)-Gln-Phe-(D-Ala)-D-Tic-Ser-OH] (H-[dY]FLP[dS]QF[dA][dTic]S-OH)
0.065	CC(C)C[C@H](NC(=O)[C@H](Cc1ccccc1)NC(=O)[C@H](N)Cc1ccc(O)cc1)C(=O)N1CCC[C@H]1C(=O)N[C@H](CO)C(=O)N[C@@H](CCC(N)=O)C(=O)N[C@@H](Cc1ccccc1)C(=O)N[C@H](C)C(=O)N1Cc2sccc2C[C@H]1C(=O)N[C@@H](CO)C(=O)O [YW-158, (D-Tyr)-Phe-Leu-Pro-(D-Ser)-Gln-Phe-(D-Ala)-TP5C-Ser-OH] (H-[dY]FLP[dS]QF[dA][X4]S-OH; N-terminus assumed)
0.0068	CC(C)C[C@H](NC(=O)[C@H](Cc1ccccc1)NC(=O)[C@H](N)Cc1ccc(O)cc1)C(=O)N1CCC[C@H]1C(=O)N[C@H](CO)C(=O)N[C@@H](CCC(N)=O)C(=O)N[C@@H](Cc1ccccc1)C(=O)N[C@H](C)C(=O)N1Cc2ccccc2C[C@H]1C(=O)N[C@@H](CO)C(N)=O [YW-189, (D-Tyr)-Phe-Leu-Pro-(D-Ser)-Gln-Phe-(D-Ala)-Tic-Ser-NH2] (H-[dY]FLP[dS]QF[dA][Tic]S-NH2; N-terminus assumed)
0.0012	CC(C)C[C@@H](C(=O)N1CC(F)(F)C[C@H]1C(=O)N[C@H](CO)C(=O)N[C@@H](CCC(N)=O)C(=O)N[C@@H](Cc1ccccc1)C(=O)N[C@H](C)C(=O)N1Cc2ccccc2C[C@H]1C(=O)N[C@@H](CO)C(=O)O)N(C)C(=O)[C@H](Cc1ccccc1)NC(=O)[C@H](N)Cc1ccc(O)cc1 [YW-174, (D-Tyr)-Phe-(NMe-Leu)-Pro(diF)-(D-Ser)-Gln-Phe-(D-Ala)-Tic-Ser-OH] (H-[dY]F[NMeL][Pro(4,4-F2)][dS]QF[dA][Tic]S-OH)
0.0022	CCCCCCCCCCCC(=O)NCCOCCOCCOCCOCCOCCOCCOCCOCCC(=O)NCCC(=O)NCCC(=O)N(C)[C@H](Cc1ccc(O)cc1)C(=O)N[C@@H](Cc1ccccc1)C(=O)N(C)[C@@H](CC(C)C)C(=O)N1CCC[C@H]1C(=O)N[C@H](CO)C(=O)N[C@@H](CCC(N)=O)C(=O)N[C@@H](Cc1ccc2ccccc2c1)C(=O)N[C@H](C)C(=O)N1Cc2ccccc2C[C@H]1C(=O)N(C)[C@@H](CO)C(=O)O [YW-181, Dodecanoyl-PEG8-βAla-βAla-(NMe-D-Tyr)-Phe-(NMe-Leu)-Pro-(D-Ser)-Gln-2Nal-(D-Ala)-Tic-(NMe-Ser)] ({Lauroyl-PEG8-βAla-βAla}-[dNMeY]F[NMeL]P[dS]Q[2Nal][dA][Tic][NMeS]-OH)
0.062	CC(C)C[C@H](NC(=O)[C@H](Cc1ccccc1)NC(=O)[C@H](N)Cc1ccc(O)cc1)C(=O)N1CCC[C@H]1C(=O)N[C@H](CO)C(=O)N[C@@H](CCC(N)=O)C(=O)N[C@@H](Cc1ccccc1)C(=O)N[C@H](C)C(=O)N1CCc2ccccc2[C@H]1C(=O)N[C@@H](CO)C(=O)O [YW-150, (D-Tyr)-Phe-Leu-Pro-(D-Ser)-Gln-Phe-(D-Ala)-Ti1c-Ser-OH] (H-[dY]FLP[dS]QF[dA][Tiq1c(1S)]S-OH)
0.062	CC(C)C[C@@H](C(=O)N1CCC[C@H]1C(=O)N[C@@H](C(=O)N[C@@H](CCC(N)=O)C(=O)N[C@@H](Cc1ccccc1)C(=O)N[C@H](C)C(=O)N1Cc2ccccc2C[C@H]1C(=O)N[C@@H](CO)C(=O)O)[C@H](C)O)N(C)C(=O)[C@H](Cc1ccccc1)NC(=O)[C@H](N)Cc1ccc(O)cc1 [YW-204, (D-Tyr)-Phe-(NMe-Leu)-Pro-(D-Thr)-Gln-Phe-(D-Ala)-Tic-Ser] (H-[dY]F[NMeL]P[dT]QF[dA][Tic]S-OH; N-terminus assumed)

The remaining lines, values behind:

Compound	EC50 [µM]
CC(C)C[C@H](NC(=O)[C@H](Cc1ccccc1)NC(=O)[C@H](N)Cc1ccc(O)cc1)C(=O)N1CCC[C@H]1C(=O)N[C@H](CO)C(=O)N[C@@H](CCC(N)=O)C(=O)N[C@@H](Cc1ccccc1)C(=O)N[C@H](C)C(=O)N1Cc2ccccc2C[C@H]1C(=O)N(C)[C@@H](CO)C(=O)O [YW-110, (D-Tyr)-Phe-Leu-Pro-(D-Ser)-Gln-Phe-(D-Ala)-Tic-(NMe-Ser)-OH] (H-[dY]FLP[dS]QF[dA][Tic][NMeS]-OH)	0.013
CC(C)C[C@H](NC(=O)[C@H](Cc1ccccc1)NC(=O)[C@H](N)Cc1ccc(O)cc1)C(=O)N1CCC[C@H]1C(=O)N[C@H](CO)C(=O)N(C)[C@@H](CCC(N)=O)C(=O)N[C@@H](Cc1ccccc1)C(=O)N[C@H](C)C(=O)N1Cc2ccccc2C[C@H]1C(=O)N[C@@H](CO)C(=O)O [YW-107, (D-Tyr)-Phe-Leu-Pro-(D-Ser)-(NMe-Gln)-Phe-(D-Ala)-Tic-Ser-OH] (H-[dY]FLP[dS][NMeQ]F[dA][Tic]S-OH)	> 50
CC(C)C[C@H](NC(=O)[C@H](Cc1ccccc1)NC(=O)[C@@H](Cc1ccc(O)cc1)NC(=O)CCCCc1ccccc1)C(=O)N1CCC[C@H]1C(=O)N[C@H](CO)C(=O)N[C@@H](CCC(N)=O)C(=O)N[C@@H](Cc1ccccc1)C(=O)N[C@H](C)C(=O)N1Cc2ccccc2C[C@H]1C(=O)N[C@@H](CO)C(=O)O [YW-76, 5-phenylvaleroyl-(D-Tyr)-Phe-Leu-Pro-(D-Ser)-Gln-Phe-(D-Ala)-Tic-Ser-OH] ({Pentanoyl(5-Ph)}-[dY]FLP[dS]QF[dA][Tic]S-OH)	0.043
CC(C)C[C@H](NC(=O)[C@H](Cc1ccccc1)NC(=O)[C@H](N)Cc1ccc(O)cc1)C(=O)N1CCC[C@H]1C(=O)N[C@H](CO)C(=O)N[C@@H](CCC(N)=O)C(=O)N[C@@H](Cc1ccc(C(=O)c2ccccc2)cc1)C(=O)N[C@H](C)C(=O)N1Cc2ccccc2C[C@H]1C(=O)N[C@@H](CO)C(=O)O [YW-119, (D-Tyr)-Phe-Leu-Pro-(D-Ser)-Gln-Bpa-(D-Ala)-Tic-Ser-OH] (H-[dY]FLP[dS]Q[Bpa][dA][Tic]S-OH)	0.0099
CN[C@H](Cc1ccc(O)cc1)C(=O)N[C@@H](Cc1ccccc1)C(=O)N(C)[C@@H](CC(C)C)C(=O)N1CCC[C@H]1C(=O)N[C@H](CO)C(=O)N[C@@H](CCC(N)=O)C(=O)N[C@@H](Cc1ccc2ccccc2c1)C(=O)N[C@H](C)C(=O)N1Cc2ccccc2C[C@H]1C(=O)N(C)[C@@H](CO)C(=O)O [YW-146, (D-NMe-Tyr)-Phe-(NMe-Leu)-Pro-(D-Ser)-Gln-2Nal-(D-Ala)-Tic-(NMe-Ser)-OH] (H-[dNMeY]F[NMeL]P[dS]Q[2Nal][dA][Tic][NMeS]-OH)	0.0014
CC(C)C[C@H](NC(=O)[C@H](Cc1ccccc1)NC(=O)[C@@H](Cc1ccc(O)cc1)NC(=O)c1c(O)cccc1O)C(=O)N1CCC[C@H]1C(=O)N[C@H](CO)C(=O)N[C@@H](CCC(N)=O)C(=O)N[C@@H](Cc1ccccc1)C(=O)N[C@H](C)C(=O)N1Cc2ccccc2C[C@H]1C(=O)N[C@@H](CO)C(=O)O [YW-128, 2,6-dihydroxybenzoyl-(D-Tyr)-Phe-Leu-Pro-(D-Ser)-Gln-Phe-(D-Ala)-Tic-Ser-OH] (X8-[dY]FLP[dS]QF[dA][Tic]S-OH)	0.02
CC(C)C[C@H](NC(=O)[C@H](Cc1ccccc1)NC(=O)[C@@H](Cc1ccc(O)cc1)NC(=O)c1cccc(O)c1O)C(=O)N1CCC[C@H]1C(=O)N[C@H](CO)C(=O)N[C@@H](CCC(N)=O)C(=O)N[C@@H](Cc1ccccc1)C(=O)N[C@H](C)C(=O)N1Cc2ccccc2C[C@H]1C(=O)N[C@@H](CO)C(=O)O [YW-127, 2,3-dihydroxybenzoyl-(D-Tyr)-Phe-Leu-Pro-(D-Ser)-Gln-Phe-(D-Ala)-Tic-Ser-OH] ({Benzoyl(2,3-diOH)}-[dY]FLP[dS]QF[dA][Tic]S-OH)	0.01
CC(C)C[C@H](NC(=O)[C@H](Cc1ccccc1)NC(=O)[C@@H](Cc1ccc(O)cc1)NCCCc1ccccc1)C(=O)N1CCC[C@H]1C(=O)N[C@H](CO)C(=O)N[C@@H](CCC(N)=O)C(=O)N[C@@H](Cc1ccccc1)C(=O)N[C@H](C)C(=O)N1Cc2ccccc2C[C@H]1C(=O)N[C@@H](CO)C(=O)O [YW-74, 3-Phenylpropyl-(D-Tyr)-Phe-Leu-Pro-(D-Ser)-Gln-Phe-(D-Ala)-Tic-Ser-OH] (H-[X11]FLP[dS]QF[dA][Tic]S-OH)	0.0062
